From the NIST ThermoML archive (doi:10.1016/j.jct.2017.06.001)

Assay: xn = mol fraction of the nth substance listed
Settings: 100 kPa, Liquid; for mass density: 293.15 K, Vibrating tube method; for speed of sound: 298.15 K, Frequency=5 MHz, Pulse-echo method

OCCCCCO [1,5-pentanediol] + O
Settings | mass density [kg/m3] | speed of sound [m/s]
x1 = 0.0002 | – | 1497.3
x1 = 0.0006 | – | 1498.9
x1 = 0.0012 | – | 1501.2
x1 = 0.0018 | – | 1503.4
x1 = 0.0026 | – | 1506.3
x1 = 0.004 | – | 1511.1
x1 = 0.0054 | – | 1515.9
x1 = 0.0067 | – | 1520.1
x1 = 0.0083 | – | 1525.4
x1 = 0.0097 | – | 1529.9
x1 = 0.0113 | – | 1534.7
x1 = 0.0123 | – | 1537.8
x1 = 0.0138 | – | 1542.2
x1 = 0.0153 | – | 1546.5
x1 = 0.0168 | – | 1550.8
x1 = 0.0184 | – | 1555.2
x1 = 0.0195 | – | 1558
x1 = 0.0205 | – | 1560.8
x1 = 0.0221 | – | 1564.7
x1 = 0.0243 | – | 1570.1
x1 = 0.0264 | – | 1575.3
x1 = 0.0287 | – | 1580.3
x1 = 0.0308 | – | 1584.9
x1 = 0.0326 | – | 1588.7
x1 = 0.0347 | – | 1593
x1 = 0.0362 | – | 1596.1
x1 = 0.0378 | – | 1599.1
x1 = 0.0396 | – | 1602.6
x1 = 0.0414 | – | 1605.7
x1 = 0.0432 | – | 1608.9
x1 = 0.045 | – | 1612
x1 = 0.0465 | – | 1614.4
x1 = 0.0484 | – | 1617.3
x1 = 0.0503 | – | 1620.2
x1 = 0.0523 | – | 1623.2
x1 = 0.0539 | – | 1625.4
x1 = 0.0554 | – | 1627.5
x1 = 0.057 | – | 1629.7
x1 = 0.0588 | – | 1631.9
x1 = 0.0607 | – | 1634.3
x1 = 0.0624 | – | 1636.4
x1 = 0.0647 | – | 1639
x1 = 0.0672 | – | 1641.8
x1 = 0.0698 | – | 1644.5
x1 = 0.0724 | – | 1647.1
x1 = 0.0743 | – | 1648.9
x1 = 0.0774 | – | 1651.7
x1 = 0.0814 | – | 1655.1
x1 = 0.0847 | – | 1657.7
x1 = 0.0877 | – | 1659.9
x1 = 0.0907 | – | 1661.9
x1 = 0.0941 | – | 1664.1
x1 = 0.0968 | – | 1665.7
x1 = 0.0975 | – | 1666.1
x1 = 0.1007 | – | 1667.9
x1 = 0.1013 | – | 1668.2
x1 = 0.1045 | – | 1669.8
x1 = 0.1057 | – | 1670.4
x1 = 0.108 | – | 1671.4
x1 = 0.1105 | – | 1672.6
x1 = 0.1112 | – | 1672.8
x1 = 0.1142 | – | 1674
x1 = 0.1158 | – | 1674.7
x1 = 0.1173 | – | 1675.2
x1 = 0.1201 | – | 1676.2
x1 = 0.1217 | – | 1676.7
x1 = 0.1233 | – | 1677.2
x1 = 0.1262 | – | 1678.1
x1 = 0.5003 | 999.3 | –
x1 = 0.5362 | 998.5 | –
x1 = 0.6177 | 996.9 | –
x1 = 0.6478 | 996.3 | –
x1 = 0.7025 | 995.2 | –
x1 = 0.7504 | 994.4 | –
x1 = 0.7927 | 993.6 | –
x1 = 0.8605 | 992.3 | –
x1 = 0.9004 | 991.5 | –
x1 = 0.9496 | 990.4 | –
x1 = 1 | 989.3 | –
